Earlier results in patent US20090312358A1, “METHOD FOR MANAGEMENT OF DIARRHEA” (TRUSTEES OF BOSTON UNIVERSITY, priority 2006, published 2009).
Like-named read-outs stand apart in the source and are kept apart here.

Assays:
[1] = compared to methylnaltrexone
[2] = for elimination half-life: in vivo; for time to peak plasma levels: after oral administration
[3] = for antidiarrheal potency relative to codeine: compared to codeine
[4] = repeated dosing in mice
[5] = oral

C[C@H]1CN(C[C@H](Cc2ccccc2)C(=O)NCC(=O)O)CC[C@@]1(C)c1cccc(O)c1 [alvimopan, Alvimopan]
potency in reversing the effects of morphine in the gastrointestinal tract relative to methylnaltrexone [1]: approximately 200 times

COc1ccc2c3c1O[C@H]1[C@@H](O)C=C[C@H]4[C@@H](C2)N(C)CC[C@@]341 [codeine]
elimination half-life [2]: ~3 h

N#CC(CCN1CCC(C(=O)O)(c2ccccc2)CC1)(c1ccccc1)c1ccccc1 [difenoxin]
antidiarrheal potency relative to codeine [3]: seventy-seven
antidiarrheal potency relative to diphenoxylate ([3]; compared to diphenoxylate): five
apparent half-life of difenoxin produced by de-esterification of diphenoxylate ([2]; healthy volunteers): approximately 50 minutes
elimination half-life [2]: 7 to 12 h

CCOC(=O)C1(c2ccccc2)CCN(CCC(C#N)(c2ccccc2)c2ccccc2)CC1 [diphenoxylate]
antidiarrheal potency relative to codeine [3]: fifteen
time to peak plasma levels [2]: approximately 2 hours

CN(C)C(=O)C(CCN1CCC(O)(c2ccc(Cl)cc2)CC1)(c1ccccc1)c1ccccc1 [loperamide, Loperamide]
development of tolerance to antimotility effects [4]: two
time to achieve symptomatic control of acute diarrhea ([5]; acute diarrhea): 9 to 20 h
time to peak plasma levels [2]: 3 to 5 h
elimination half-life [2]: 9 to 14 h

C[N@+]1(CC2CC2)CC[C@]23c4c5ccc(O)c4O[C@H]2C(=O)CC[C@@]3(O)[C@H]1C5 [methylnaltrexone, Methylnaltrexone]
time to restore normal bowel function ([5]; opioid bowel dysfunction): 4 to 7 h
elimination half-life [2]: 3 h
elimination half-life ([2]; listed as Methylnaltrexone): 2 to 3 h

CN1CC[C@]23c4c5ccc(O)c4O[C@H]2[C@@H](O)C=C[C@H]3[C@H]1C5 [morphine]
development of tolerance to antimotility effects [4]: not observed

C=C1CC[C@@]2(O)[C@H]3Cc4ccc(O)c5c4[C@@]2(CCN3CC2CC2)[C@H]1O5 [nalmefene, Nalmefene]
elimination half-life [2]: approximately 11 hours

O=C1CC[C@@]2(O)[C@H]3Cc4ccc(O)c5c4[C@@]2(CCN3CC2CC2)[C@H]1O5 [naltrexone, Naltrexone]
time to peak plasma levels [2]: about 1 hours
